Our source for the viability, T/C and IC50 values is PubChem BioAssay AID1963979 (Molecular Pharmacology Branch, DTP, NCI, 2024).

One may read the viability, T/C as the result in the treated group divided by that in the control group, in per cent. The term IC50 denotes the concentration needed to halve the response being measured.

Each structure is given as a SMILES string. Values joined by “and” are separate entries in the source; they are usually repeats but may differ in a detail not shown here. Identical values can stand only once. Bounds are passed on as bounds.

The test concerns 361931-004-R-J1-PDC multicell spheroid viability. Kind of test: Anticancer human tumor 361931-004-R-J1-PDC patient-derived colon adenocarcinoma cell line growth inhibition [PI3K]. The note with it: for viability, T/C: stronger effect = lower value. The method in brief:
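High-throughput combination screen: PI3K inhibitors crossed with targeted small molecules on complex spheroids of tumor cells, HUVEC and MSCs at 37 degrees C, 5% CO2. Top concentration was at or near clinical Cmax (otherwise 10 microM), with half-log decrements.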
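Note: spheroids exposed to agents for seven days before readout.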

In the case of `CCN1CCN(Cc2ccc(Nc3ncc(F)c(-c4cc(F)c5nc(C)n(C(C)C)c5c4)n3)nc2)CC1`, the viability, T/C was 104% (2×) and 94% and 103% (compound 0.00316 µM); 105% [middle of 4 runs] (compound 0.01 µM); 101% [middle of 4 runs] (compound 0.1 µM). For the same compound, the IC50 (curve of compound) was more than 1 µM.
In the case of `C#Cc1c(F)ccc2cc(O)cc(-c3ncc4c(N5CC6CCC(C5)N6)nc(OCC56CCCN5CC(F)C6)nc4c3F)c12` (stereo unspecified) + Cc1nc(NC(=O)N2CCCC2C(N)=O)sc1-c1ccnc(C(C)(C)C(F)(F)F)c1, the IC50 is, setting by setting: (curve of first compound, second compound 0.0316 µM) more than 10 µM; (curve of first compound, second compound 0.1 µM) more than 10 µM; (curve of first compound, second compound 0.316 µM) more than 10 µM; (curve of first compound, second compound 1 µM) more than 10 µM; (curve of first compound, second compound 3.16 µM) 3.52 µM; (curve of first compound, second compound 10 µM) 0.219 µM. Besides, the viability, T/C is, setting by setting: (second compound 0.0316 µM, first compound 0.0316 µM) 104%; (second compound 0.0316 µM, first compound 0.1 µM) 90.5%; (second compound 0.0316 µM, first compound 0.316 µM) 91.6%; (second compound 0.0316 µM, first compound 1 µM) 83%; (second compound 0.0316 µM, first compound 3.16 µM) 79.7%; (second compound 0.0316 µM, first compound 10 µM) 69.3%. For the same compound, the viability, T/C is 109% (second compound 0.1 µM, first compound 0.0316 µM); 98.3% (second compound 0.1 µM, first compound 0.1 µM); 93.7% (second compound 0.1 µM, first compound 0.316 µM); 88.9% (second compound 0.1 µM, first compound 1 µM); 88.2% (second compound 0.1 µM, first compound 3.16 µM); 61.8% (second compound 0.1 µM, first compound 10 µM). Moreover, the viability, T/C (second compound 0.316 µM, first compound 0.0316 µM) is 91.6%; the viability, T/C (second compound 0.316 µM, first compound 0.1 µM) was 86.5%; the viability, T/C (second compound 0.316 µM, first compound 0.316 µM) was 78.6%; the viability, T/C (second compound 0.316 µM, first compound 1 µM) is 69.5%; the viability, T/C (second compound 0.316 µM, first compound 3.16 µM) was 73.5%; the viability, T/C (second compound 0.316 µM, first compound 10 µM) is 58%. Besides, the viability, T/C runs as follows: (second compound 1 µM, first compound 0.0316 µM) 89.2%; (second compound 1 µM, first compound 0.1 µM) 86.2%; (second compound 1 µM, first compound 0.316 µM) 70.3%; (second compound 1 µM, first compound 1 µM) 62.2%; (second compound 1 µM, first compound 3.16 µM) 68.2%; (second compound 1 µM, first compound 10 µM) 58.6%. In addition, the viability, T/C by setting is: (second compound 3.16 µM, first compound 0.0316 µM) 85.4%; (second compound 3.16 µM, first compound 0.1 µM) 77.9%; (second compound 3.16 µM, first compound 0.316 µM) 65.5%; (second compound 3.16 µM, first compound 1 µM) 53.9%; (second compound 3.16 µM, first compound 3.16 µM) 56.5%; (second compound 3.16 µM, first compound 10 µM) 42%. The viability, T/C is, setting by setting: (second compound 10 µM, first compound 0.0316 µM) 62.2%; (second compound 10 µM, first compound 0.1 µM) 48%; (second compound 10 µM, first compound 0.316 µM) 49%; (second compound 10 µM, first compound 1 µM) 40.2%; (second compound 10 µM, first compound 3.16 µM) 39.2%; (second compound 10 µM, first compound 10 µM) 22.1%.
